In test [1] the target is T1, PPAR-γ (Homo sapiens, UniProt P37231).
T1 construct: endogenous in cells; host or cells: HeLa
T1 sequence (P37231 1-505): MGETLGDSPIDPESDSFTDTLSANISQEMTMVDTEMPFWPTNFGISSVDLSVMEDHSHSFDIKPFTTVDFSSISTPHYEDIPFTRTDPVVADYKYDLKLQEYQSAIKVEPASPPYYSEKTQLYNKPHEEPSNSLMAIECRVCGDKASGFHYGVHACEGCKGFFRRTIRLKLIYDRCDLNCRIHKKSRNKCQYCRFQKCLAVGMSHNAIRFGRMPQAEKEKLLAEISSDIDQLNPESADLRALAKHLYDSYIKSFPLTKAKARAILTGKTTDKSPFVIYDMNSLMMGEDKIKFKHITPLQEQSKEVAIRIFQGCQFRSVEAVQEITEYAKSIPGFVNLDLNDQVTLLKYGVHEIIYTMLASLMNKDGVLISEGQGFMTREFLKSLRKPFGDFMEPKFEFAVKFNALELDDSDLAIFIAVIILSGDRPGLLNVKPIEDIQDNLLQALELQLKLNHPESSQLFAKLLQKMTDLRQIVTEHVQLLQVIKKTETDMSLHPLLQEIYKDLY
Briefly: PPAR-γ ELISA Assay in HeLa cells (in vitro PPAR-γ assay). It is filed as cell-based. The note with it: 50 μg/mL; for PPAR-γ activity in the in vitro assay (in words): versus positive control rosiglitazone. As for the experimental part:
In addition to the Western blot, the diverse library was also screened in the in vitro PPAR-γ assay. […] The compounds were tested at 50 μg/mL according to the protocol detailed in section 3.2.3.

The test system of test [2] is NFκB. Briefly: NFκB in vitro assay, NFκB translocation to the nucleus in HeLa cells. It is filed as cell-based. Particulars: for IC50: inhibiting NFκB translocation to the nucleus, tested at 50, 5, 0.5, and 0.05 μM. As for the experimental part:
Following derivatization and purification, compound 40 was tested in the NFκB and PPAR-Y in vitro assays, as well as the diabetic zebrafish Western blot. The three 4-phenylcoumarin glycoside natural products from the diverse library (22, 23, and 24) and the isopropyl ether derivative (40), were evaluated for PPAR-γ activity at 50 μg/mL in HeLa cells according to a PPAR-γ ELISA Assay (Table 4). […] NFκB Assay (Table 4).
As an excellent lead, 24 was derivatized to yield 40, and both compounds were evaluated in the NFκB and PPAR-γ in vitro assays (Table 4). […] To investigate 24 and 40 in a live, metabolizing system with appropriate hormone responses, the compounds were tested (at 10, 5, and 1 μM) in the larval diabetic zebrafish assay.

In test [3] the test system is PPAR-γ. Put plainly: Diabetic zebrafish Western blot, PPAR-γ expression. Type of test: in vivo. Particulars: for PPAR-γ expression, dose dependence: diabetic zebrafish, 10, 5, and 1 μM. The procedure:
(§1) Alloxan-induced diabetic zebrafish were treated with compounds for immunoblot to validate the newly developed animal model, determine the antidiabetic potential of natural product leads, evaluate glucose metabolism, and discover possible mechanisms of action.
(§2) At 72 hpf, naturally dechorionated zebrafish were sorted into a 24-well microplate with 10 fish per well. Type 2 diabetes was induced with the diabetogenic agent alloxan at a dose of 0.5 mg/mL in system water for 3 hours. The incubation solution was changed to 0.01% DMSO in system water with compounds at concentrations of 20 μg/mL or […], respectively. After 3 hours of treatment with natural product samples, 10 mg/mL D-glucose was administered in system water for 30 minutes, followed by 1 hour in fresh system water to metabolize the glucose and natural product leads. Upon completion of the 4-phase treatment cycle, zebrafish treatment groups were snap frozen into individual microcentrifuge tubes on dry ice, stored overnight at −80° C., thawed, homogenized with 2 μL PBS per animal, and centrifuged at 4° C. for 1 hour at 17,000 rpm. Protein content of homogenate supernatant was determined using the Pierce BCA Protein Assay kit (Pierce Biotechnology) and bovine serum albumin (BSA) standard curve. Absorbance of protein solutions from zebrafish homogenates and serial dilutions of the BSA standard were measured at 544 nm, using a FLUOstar Optima plate reader (BMG Labtechnologies GmbH, Inc.). Homogenates were analyzed by Western blot. Equal amounts of protein (20 μg) were combined with 4× lithium dodecyl sulphate (LDS) loading buffer (NuPAGE, Life Technologies, Carlsbad, CA, USA), brought to volume (15 μL) with PBS, and heated to 95° C. for 5 minutes. Proteins were resolved using NuPAGE Bis-Tris 4-12% gradient sodium dodecyl sulfate polyacrylamide gel electrophoresis (SDS-PAGE) gels together with SeeBlue Plus2 Pre-Stained Standard Ladder (Life Technologies).
(§3) Electrophoresis was performed using NuPAGE MES SDS Running Buffer and XCell SureLock Mini-Cell Electrophoresis System (Life Technologies). Separated proteins were transferred from the gel to a polyvinylidene fluoride (PVDF) membrane using tris buffered saline with Tween-20 (TBST) buffer. The blots were blocked in 3% BSA in TBST and subsequently probed using primary antibodies (1:1000 in 1% BSA in TBST) against each target overnight (Table 1). The secondary, horseradish peroxidase (HRP) conjugated antibodies (1:2000) were obtained from Santa Cruz Biotechnology Inc., (Santa Cruz, CA, USA). Conjugated antibodies were detected using SuperSignal West Femto chemiluminescent substrate from Pierce Biotechnology. […] Band density was quantified for proteins of interest using ImageJ Gel Analysis. […]

The subject of test [4] is PEPCK. Briefly: Diabetic zebrafish Western blot, PEPCK expression. Particulars: 10 μM, FIG. 8. Type of test: in vivo. As for the experimental part:
as §1, §2, §3

Entries after “also recorded” stand apart in the source; their conditions may differ.

On to `COc1cc(O[C@@H]2OCC(O)(CO[C@@H]3OC(CO)[C@@H](O)C(O)C3O)C2O)c2c(-c3ccc(OC(C)C)c(O)c3)cc(=O)oc2c1` (single isomer, unassigned) [Compound 40], for which the activation at 50 µg/mL in test [1] (Table 4) was 0%. Further, the “PPAR-γ activity in the in vitro assay (in words)” value in test [1] is “loss of all activity”. In addition, in test [2], the “times less effective at inhibiting NFκB translocation than parent compound 24” value came to 2.6 times and the IC50 was 10.2 µM. For the same compound, the “PPAR-γ expression, dose dependence” value in test [3] (FIG. 9) is on record as “dose-dependent activation of PPAR-γ; also recorded: not as effective as 24”. Also, the “PEPCK expression versus rosiglitazone” value in test [4] was “approximately equal efficacy to rosiglitazone”.

On to `COc1cc(O[C@@H]2O[C@H](CO[C@@H]3OCC(O)(CO)[C@H]3O)[C@@H](O)[C@H](O)[C@H]2O)c2c(-c3ccc(O)c(O)c3)cc(=O)oc2c1` (stereo partly drawn) [Compound 24, 5-O-[β-D-apiofuranosyl-(1→6)-β-D-glucopyranosyl]-7-methoxy-3′,4′-dihydroxy-4-phenylcoumarin], for which the “% Activation PPAR-γ” value in test [1] (Table 2) and in test [1] (Table 4) was 101% in each case. Further, the “PPAR-γ activity in the in vitro assay (in words)” value in test [1] is on record as “top performers”. The compound also showed a 50% inhibitory concentration (IC50) in test [2] of 3.95 µM. The “PPAR-γ expression (Western blot band density)” value in test [3] (diabetic zebrafish, 10 μM, library screen, FIG. 3 / FIG. 11) is given as “greater PPAR-7 expression than the PPAR-γ positive control; also recorded: greatest PPAR-γ activation surpassing even the positive control thiazolidinedione”. Further, the “PPAR-γ expression, dose dependence” value in test [3] (FIG. 9) is listed as “dose-dependent activation of PPAR-γ”. Besides, the “PPAR-γ expression versus rosiglitazone” value in test [3] (diabetic zebrafish, same concentration (10 μM), FIG. 9) is recorded as “greater PPAR-γ expression than the FDA-approved PPAR-γ agonist”. Moreover, in test [4], the “PEPCK expression versus rosiglitazone” value was “greater gluconeogenic effect than rosiglitazone”.
